According to PubChem BioAssay (NCI):
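Method: 48-hour compound exposure of cells in 96-well plates, five concentrations, linear interpolation of endpoints. At the GI50, growth is halved. TGI: total growth inhibition.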

Columns and labels:
Test in all cases: growth of human tumour cells (NCI), 48 h
UACC-62 melanoma = system: UACC-62 melanoma
PC-3 prostate = system: PC-3 prostate
NCI-H460 lung = system: NCI-H460 lung
TK-10 renal = system: TK-10 renal
SK-OV-3 ovarian = system: SK-OV-3 ovarian
NCI/ADR-RES ovarian = system: NCI/ADR-RES ovarian
MOLT-4 leukemia = system: MOLT-4 leukemia
A498 renal = system: A498 renal
COLO 205 colon = system: COLO 205 colon
HOP-62 NSCLC = system: HOP-62 NSCLC
A549 NSCLC = system: A549 NSCLC
SF-539 CNS = system: SF-539 CNS
LOX IMVI melanoma = system: LOX IMVI melanoma
ACHN renal = system: ACHN renal
HCT-116 colon = system: HCT-116 colon
M14 melanoma = system: M14 melanoma
NCI-H522 lung = system: NCI-H522 lung
SNB-19 CNS = system: SNB-19 CNS
SW-620 colon = system: SW-620 colon
HOP-92 NSCLC = system: HOP-92 NSCLC
DU-145 prostate = system: DU-145 prostate
HCT-15 colon = system: HCT-15 colon
IGROV1 ovarian = system: IGROV1 ovarian
NCI-H23 lung = system: NCI-H23 lung
HCC-2998 colon = system: HCC-2998 colon
MDA-MB-435 = system: MDA-MB-435
SK-MEL-2 melanoma = system: SK-MEL-2 melanoma
SF-268 CNS = system: SF-268 CNS
BT-549 breast = system: BT-549 breast
OVCAR-5 ovarian = system: OVCAR-5 ovarian
CAKI-1 renal = system: CAKI-1 renal
OVCAR-8 ovarian = system: OVCAR-8 ovarian
786-0 renal = system: 786-0 renal
CCRF-CEM leukemia = system: CCRF-CEM leukemia
HS 578T breast = system: HS 578T breast
RXF 393 renal = system: RXF 393 renal
RPMI-8226 leukemia = system: RPMI-8226 leukemia
OVCAR-3 ovarian = system: OVCAR-3 ovarian
T-47D breast = system: T-47D breast
HT29 colon = system: HT29 colon
UO-31 renal = system: UO-31 renal
SK-MEL-5 melanoma = system: SK-MEL-5 melanoma
MDA-MB-231 breast = system: MDA-MB-231 breast
HL-60(TB) leukemia = system: HL-60(TB) leukemia
UACC-257 melanoma = system: UACC-257 melanoma
SNB-75 CNS = system: SNB-75 CNS
MCF7 breast = system: MCF7 breast
OVCAR-4 ovarian = system: OVCAR-4 ovarian
EKVX NSCLC = system: EKVX NSCLC
NCI-H226 lung = system: NCI-H226 lung
SK-MEL-28 melanoma = system: SK-MEL-28 melanoma
K-562 leukemia = system: K-562 leukemia
SF-295 CNS = system: SF-295 CNS
SN12C renal = system: SN12C renal
U251 CNS = system: U251 CNS
MALME-3M melanoma = system: MALME-3M melanoma
KM12 colon = system: KM12 colon

## Cn1ccc2c(NCCN)c3c(c(NCCN)c21)C(=O)c1ccccc1C3=O
UACC-62 melanoma
  GI50: 2.17 µM
  TGI: 5.86 µM
PC-3 prostate
  GI50: 0.494 µM
  TGI: 3.18 µM
NCI-H460 lung
  GI50: 0.448 µM
  TGI: 2.24 µM
TK-10 renal
  GI50: 2.53 µM
  TGI: 9.96 µM
SK-OV-3 ovarian
  GI50: 20.3 µM
  TGI: 42.4 µM
NCI/ADR-RES ovarian
  GI50: 8.04 µM
  TGI: 26.7 µM
MOLT-4 leukemia
  GI50: < 0.0429 µM
A498 renal
  GI50: 2.31 µM
  TGI: 4.87 µM
COLO 205 colon
  GI50: 24.4 µM
  TGI: 68.4 µM
HOP-62 NSCLC
  GI50: 0.35 µM
  TGI: 2.72 µM
A549 NSCLC
  GI50: 2.83 µM
  TGI: 12.1 µM
SF-539 CNS
  GI50: 0.291 µM
  TGI: 1.55 µM
LOX IMVI melanoma
  GI50: 0.651 µM
  TGI: 2 µM
ACHN renal
  GI50: 2.5 µM
  TGI: 9.04 µM
HCT-116 colon
  GI50: 0.398 µM
  TGI: 4.41 µM
M14 melanoma
  GI50: 2.32 µM
  TGI: 8.68 µM
NCI-H522 lung
  GI50: 0.498 µM
  TGI: 4.92 µM
SNB-19 CNS
  GI50: 20.5 µM
  TGI: 47.2 µM
SW-620 colon
  GI50: 0.514 µM
  TGI: 2.59 µM
HOP-92 NSCLC
  GI50: 0.718 µM
  TGI: 2.58 µM
DU-145 prostate
  GI50: 0.453 µM
  TGI: 6.05 µM
HCT-15 colon
  GI50: 2.8 µM
  TGI: > 32 µM
IGROV1 ovarian
  GI50: 0.824 µM
  TGI: > 31.8 µM
NCI-H23 lung
  GI50: 1.68 µM
  TGI: 4.07 µM
HCC-2998 colon
  GI50: 1.64 µM
  TGI: 3.99 µM
MDA-MB-435
  GI50: 1.54 µM
  TGI: 5.59 µM
SK-MEL-2 melanoma
  GI50: 2.33 µM
  TGI: 11.5 µM
SF-268 CNS
  GI50: 1.47 µM
  TGI: 7.11 µM
BT-549 breast
  GI50: 7.62 µM
  TGI: 23.7 µM
OVCAR-5 ovarian
  GI50: 2.78 µM
  TGI: 12 µM
CAKI-1 renal
  GI50: 2.51 µM
  TGI: 9.48 µM
OVCAR-8 ovarian
  GI50: 2.84 µM
  TGI: 13.4 µM
786-0 renal
  GI50: 0.443 µM
  TGI: 3.95 µM
CCRF-CEM leukemia
  GI50: 0.371 µM
HS 578T breast
  GI50: 1.84 µM
  TGI: 5.26 µM
RXF 393 renal
  GI50: 1.5 µM
  TGI: 3.67 µM
RPMI-8226 leukemia
  GI50: 0.455 µM
OVCAR-3 ovarian
  GI50: 0.795 µM
  TGI: 5.37 µM
T-47D breast
  GI50: 27.4 µM
  TGI: 62 µM
HT29 colon
  GI50: 7.77 µM
  TGI: > 44.8 µM
UO-31 renal
  GI50: 1.52 µM
  TGI: 5.76 µM
SK-MEL-5 melanoma
  GI50: 2.19 µM
  TGI: 4.99 µM
MDA-MB-231 breast
  GI50: 0.619 µM
  TGI: 2.38 µM
HL-60(TB) leukemia
  GI50: 2.91 µM
  TGI: 64.1 µM
UACC-257 melanoma
  GI50: 10.2 µM
  TGI: > 27.7 µM
SNB-75 CNS
  GI50: 18.9 µM
  TGI: 44.5 µM
MCF7 breast
  GI50: 0.442 µM
  TGI: 7.22 µM
OVCAR-4 ovarian
  GI50: 9.46 µM
  TGI: 30.8 µM
EKVX NSCLC
  GI50: 1.34 µM
  TGI: 5.3 µM
NCI-H226 lung
  GI50: 1.3 µM
  TGI: 5.8 µM
SK-MEL-28 melanoma
  GI50: 15.6 µM
  TGI: 36.7 µM
K-562 leukemia
  GI50: 0.589 µM
  TGI: 83.6 µM
SF-295 CNS
  GI50: 0.968 µM
  TGI: 5.77 µM
SN12C renal
  GI50: 0.465 µM
  TGI: 1.61 µM
U251 CNS
  GI50: 1.03 µM
  TGI: 9.88 µM
MALME-3M melanoma
  GI50: 3.67 µM
  TGI: 15.2 µM
KM12 colon
  GI50: 0.551 µM
  TGI: 5.71 µM
